The record followed here is patent publication US8425917B2 (priority 2001, dated 2013).

Type in all cases: cell-based, mouse (C57BL/6)
The test system of experiment [1] is EtxB-mediated epitope delivery in JAWSII cells.
Experiment [2] shares this test system. This is another data set of the same source.
A further experiment concerns JAWSII cells.
A further experiment relates to JAWSII dendritic cells.
The subject of experiment [3] is MHC-I/SIINFEKL complex on JAWSII cells.

“Also recorded” adds a separate entry of the source. Read-outs that look alike come from different tables or passages of the source. Square brackets hold non-standard residues; d marks the D form. Peptide text beside a SMILES is read from it. * marks the point of attachment. Sta = CC(C)C[C@H](N)[C@@H](O)CC(=O)O; Isovaleryl = CC(C)CC(=O)*; Cbz = O=C(OCc1ccccc1)*

For `CC(=O)N[C@@H](CSC(=O)[C@]1([C@@H](O)C(C)C)NC(=O)[C@H](C)[C@@H]1O)C(=O)O` [lactacystin], in experiment [1], the “effect on direct loading and presentation of free 8mer peptide” value (“effect … of free 8mer peptide” below) is “failed to prevent”; the “effect on epitope presentation by EtxB-19mer” value (“effect … by EtxB-19mer” for short) is “failed to prevent”; the “effect on epitope presentation by EtxB-31mer” value (“effect … by EtxB-31mer” below) is on record as “completely blocked”.

Regarding `CC[C@H](C)[C@H](NC(=O)[C@H]([C@@H](C)CC)N(C)C(C)=O)C(=O)N[C@H](C(=O)N[C@@H](CC(C)C)C(=O)[C@@]1(C)CO1)[C@@H](C)O` [epoxomicin], in experiment [1], the “effect … of free 8mer peptide” value is listed as “no inhibition of epitope presentation was observed”; the “effect … by EtxB-19mer” value is listed as “no inhibition of epitope presentation was observed”; the “effect … by EtxB-31mer” value is given as “completely blocked”. Moreover, in experiment [2], the “effect … by EtxB-19mer” value is listed as “no inhibition of epitope presentation was observed” and the “effect … by EtxB-31mer” value is on record as “completely blocked”. In the experiment on JAWSII cells, the “effect on MHC-I/SIINFEKL staining in cells treated with EtxB-19mer” value was “normal co-localisation of WGA and MHC-I/SIINFEKL complexes was observed”; the “effect on MHC-I/SIINFEKL staining in cells treated with EtxB-31mer” value was “no staining with MHC-I/SIINFEKL-specific antibodies was obtained”.

In the case of `CC(C)C[C@H](NC(=O)[C@@H](O)[C@H](N)Cc1ccccc1)C(=O)O` [bestatin], the “effect on EtxB-mediated epitope presentation (conjugate not specified)” value (shortened to “effect … (conjugate not specified)”) in experiment [1] is “no significant effects”.

In the case of `CC(C)C[C@@H](C=O)NC(=O)[C@H](CC(C)C)NC(=O)[C@H](CC(C)C)NC(=O)OCc1ccccc1` [MG132] (Cbz-Leu-Leu-Leu-aldehyde), in experiment [1], the “effect … of free 8mer peptide” value is “failed to prevent”; the “effect … by EtxB-19mer” value is on record as “failed to prevent”; the “effect … by EtxB-31mer” value is given as “completely blocked”.

For the compound CSIINFEKL [9mer], the “extent of class I epitope presentation (IL-2 release)” value (from here on “extent … (IL-2 release)”) in the experiment with JAWSII dendritic cells is reported as “significantly stimulated class I presentation”.

Regarding `CC(=O)N[C@@H](CC(C)C)C(=O)N[C@@H](CC(C)C)C(=O)N[C@H](C=O)CCCNC(=N)N` [leupeptin], the “effect … (conjugate not specified)” value in experiment [1] is reported as “no significant effects”.

As to Brefeldin A [BFA], in experiment [1], the “effect … of free 8mer peptide” value is listed as “did not inhibit”; the “effect on epitope delivery by EtxB-9mer, -16mer, -19mer, -26mer and -26mer* conjugates” value (“effect on epitope delivery by EtxB-9mer” below) was “complete inhibition”; the “effect … by EtxB-31mer” value was “prevented”. In addition, in experiment [2], the “effect on epitope delivery by EtxB-9mer” value was “complete inhibition”; the “effect … by EtxB-31mer” value is reported as “prevented”. The “effect on MHC-I/SIINFEKL complexes in cells treated with EtxB-19mer or EtxB-31mer” value in the experiment on JAWSII cells is given as “no detectable MHC-I/SIINFEKL complexes were observed”.

As for `CC(C)CC(=O)N[C@H](C(=O)N[C@H](C(=O)N[C@@H](CC(C)C)[C@@H](O)CC(=O)N[C@@H](C)C(=O)N[C@@H](CC(C)C)[C@@H](O)CC(=O)O)C(C)C)C(C)C` [pepstatin] (Isovaleryl-VV[Sta]A[Sta]-OH), in experiment [1], the “effect on extent of EtxB-mediated presentation of the 26mer peptide” value is given as “no effect”.

On to SIINFEKL [8mer], for which, in the experiment on JAWSII dendritic cells, the “extent … (IL-2 release)” value is on record as “significantly stimulated class I presentation” and the “kinetics of class I peptide presentation (in words)” value was “peptide presentation at the earliest time point tested”. Further, in experiment [3], the “MHC-I/SIINFEKL complexes (shift in fluorescence)” value was “clear and similar shift in fluorescence”.

Take `c1cnc2c(c1)ccc1cccnc12` [1,10-phenanthroline]: in experiment [1], the “effect … (conjugate not specified)” value is “found to inhibit”.

With CAVGAGATAEESIINFEKL [19mer], in the experiment with JAWSII dendritic cells, the “extent … (IL-2 release)” value is listed as “virtually no presentation occurred”.

As to Bafilomycin A1 [BafA1], in experiment [1], the “effect … (conjugate not specified)” value is given as “inhibited”; the “effect … of free 8mer peptide” value is on record as “did not inhibit”; the “effect on epitope delivery by EtxB-9mer” value is recorded as “complete inhibition”; the “effect … by EtxB-31mer” value is listed as “prevented”. Further, in experiment [2], the “effect on epitope delivery by EtxB-9mer” value is on record as “complete inhibition”; the “effect … by EtxB-31mer” value is “prevented”. Further, the “effect on MHC-I/SIINFEKL complexes in cells treated with EtxB-19mer or EtxB-31mer” value in the experiment with JAWSII cells is on record as “no detectable MHC-I/SIINFEKL complexes were observed”.

For the compound `CC[C@@]1([C@@H]2O[C@@H]([C@H]3O[C@@](O)(CO)[C@H](C)C[C@@H]3C)C[C@@H]2C)CC[C@H]([C@]2(C)CC[C@]3(C[C@H](O)[C@@H](C)[C@@H]([C@@H](C)[C@@H](OC)[C@H](C)C(=O)O)O3)O2)O1` [monensin], in experiment [1], the “effect … (conjugate not specified)” value is listed as “prevented; also recorded: inhibited”; the “effect … of free 8mer peptide” value is given as “unaffected”.
